Measured values as given in patent US7385026B1, “Modified ghrelin polypeptides” (priority 1999, dated 2008).
Read-outs that look alike come from different tables or passages of the source. One block for each molecule: values may come before it. Peptide text beside a SMILES is read from it. * marks the point of attachment. Octanoyl = CCCCCCCC(=O)*; Octyl = CCCCCCCC*

Target: T1, rat GHS-receptor (GHR-R) (Rattus norvegicus, UniProt O08725)
T1 construct: A full-length cDNA for rat GHR-R was obtained by RT-PCR; expressed in transfected cells
T1 sequence (O08725 whole entry): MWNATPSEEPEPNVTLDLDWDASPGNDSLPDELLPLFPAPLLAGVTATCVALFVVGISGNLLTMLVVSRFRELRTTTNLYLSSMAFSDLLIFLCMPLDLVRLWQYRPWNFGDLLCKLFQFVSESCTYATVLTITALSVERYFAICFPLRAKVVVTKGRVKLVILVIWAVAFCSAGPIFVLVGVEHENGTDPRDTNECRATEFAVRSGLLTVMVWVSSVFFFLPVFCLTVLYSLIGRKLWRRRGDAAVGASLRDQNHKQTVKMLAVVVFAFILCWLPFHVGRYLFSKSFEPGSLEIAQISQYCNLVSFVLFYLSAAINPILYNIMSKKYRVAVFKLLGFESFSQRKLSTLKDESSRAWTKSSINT
Test: Ca-releasing activity (increase in intracellular calcium) in CHO-GHSR62 cells, FLIPR
Assay type: cell-based
Text: To assay an increase in the intracellular calcium ion concentration (Ca-releasing activity) occurring upon binding of a GH secretagogue (GHS) to GHS-receptor (GHR-R), a cell strain expressing rat GHR-R was created in the following manner. A full-length cDNA for rat GHR-R was obtained by RT-PCR (reverse transcriptase-polymerase chain reaction) where a cDNA derived from rat brain was used as template. From the nucleotide sequence of known rat GHR-R [K. K. Mckee, et al, Molecular Endocrinology 11, 415-423 (1997)], sense and antisense primers consisting of the following nucleotide sequences were synthesized.
The amplified cDNA was ligated to vector pcDNAIII (Invitrogen) to construct expression vector GHSR-pcDNAIII. CHO cells were transformed via the expression vector, and the transformed cells stably expressing GHR-R were selected in a medium containing 1 μg/ml G418. […] A change in the intracellular calcium ion concentration (Ca-releasing activity) was measured by an FLIPR system (Molecular Device). Before this measurement, 4×10^4 CHO-GHSR62 cells were put to a 96-well microplate with black wall (Corning Co., Ltd) and cultured for 12 to 15 hours. Then, the cells were incubated with 4 μM fluorescent Fluo4 (Molecular Probe Co., Ltd) for 1 hour and washed four times with Hank's BSS (Hank's Balanced Salt Solution) containing 20 mM Hepes ([N-2-hydroxyethyl]-piperazine-N-[2-ethanesulfonic acid]) and 2.5 mM probenecid, and the Ca-releasing activity was assayed by adding a sample and measuring a change in the fluorescence.
Peptide fragments obtained by partially digested the rat- and human-derived ghrelins by various proteases, or chemically synthesized peptides, were examined for their Ca releasing activity in order to determine a core amino acid sequence and the optimum chain length of a modifying fatty acid necessary for Ca-releasing activity.
The Ca-increasing activities of the ghrelin derivative peptide-type compounds synthesized in Example 10 and the natural ghrelin peptide were measured in the same manner as in Example 1.
In this examination, the intracellular Ca-releasing activity in CHO cells expressing rat GSH receptor was used as the indicator.

[1] = CHO-GHSR62 cells (CHO cells expressing rat GHS receptor), FLIPR, read-out: Ca-releasing activity EC50
[2] = Table 3, Example 9: protease fragments or synthetic peptides, CHO-GHSR62 cells, read-out: Ca-releasing activity (EC50)

Structure (SMILES): CCCCCCCCSC[C@H](NC(=O)[C@H](CO)NC(=O)CN)C(=O)N[C@@H](Cc1ccccc1)C(=O)N[C@@H](CC(C)C)C(=O)N[C@@H](CO)C(=O)N1CCC[C@H]1C(N)=O [Compound 48, [Cys^3(Octyl)]-Ghrelin (1-7)-amide] (H-GSC(Octyl)FLSP-NH2)
EC50 [1]: 7.4 nM

Structure (SMILES): CCCCCCCC(=O)O [n-octanoic acid, reference compound]
Ca-releasing activity (in words) (CHO-GHSR62 cells): did not show a significant Ca-releasing activity

Structure (SMILES): CC(C)C[C@H](NC(=O)[C@H](CCCCN)NC(=O)[C@H](C)NC(=O)[C@@H]1CCCN1C(=O)[C@@H]1CCCN1C(=O)[C@H](CCCCN)NC(=O)[C@H](CCCCN)NC(=O)[C@H](CO)NC(=O)[C@H](CCC(=O)O)NC(=O)[C@H](CCCCN)NC(=O)[C@H](CCCNC(=N)N)NC(=O)[C@H](CCC(N)=O)NC(=O)[C@H](CCC(N)=O)NC(=O)[C@@H](NC(=O)[C@H](CCCNC(=N)N)NC(=O)[C@H](CCC(N)=O)NC(=O)[C@H](Cc1c[nH]cn1)NC(=O)[C@H](CCC(=O)O)NC(=O)[C@@H]1CCCN1C(=O)[C@H](CO)NC(=O)[C@H](CC(C)C)NC(=O)[C@H](Cc1ccccc1)NC(=O)[C@H](CSC(c1ccccc1)(c1ccccc1)c1ccccc1)NC(=O)[C@H](CO)NC(=O)CN)C(C)C)C(=O)N[C@@H](CCC(N)=O)C(=O)N1CCC[C@H]1C(=O)N[C@@H](CCCNC(=N)N)C(=O)O [Compound 68, [Cys^3(Trityl)]-hGhrelin]
EC50 (Ca-releasing activity EC50, CHO-GHSR62 cells (CHO cells expressing rat GHS receptor), FLIPR): 20 nM

Structure (SMILES): CCCCCCCCOC[C@H](NC(=O)CCCCN)C(=O)N[C@@H](Cc1ccccc1)C(=O)N[C@@H](CC(C)C)C(=O)NCCN [Compound 85, [N-Aminopentanoyl, Ser^3(Octyl)]-Ghrelin (3-5), aminoethylamide]
EC50 [1]: 3.5 nM

The next lines start with the values.

EC50 [1]: 2.6 nM
Structure (SMILES): CCCCCCCC(=O)NC[C@H](NC(=O)[C@H](CO)NC(=O)CN)C(=O)N[C@@H](Cc1ccccc1)C(=O)N[C@@H](CC(C)C)C(=O)N[C@@H](CO)C(=O)N1CCC[C@H]1C(=O)N[C@@H](CCC(=O)O)C(=O)N[C@@H](Cc1cnc[nH]1)C(=O)N[C@@H](CCC(N)=O)C(=O)N[C@@H](CCCNC(=N)N)C(=O)N[C@H](C(=O)N[C@@H](CCC(N)=O)C(=O)N[C@@H](CCC(N)=O)C(=O)N[C@@H](CCCNC(=N)N)C(=O)N[C@@H](CCCCN)C(=O)N[C@@H](CCC(=O)O)C(=O)N[C@@H](CO)C(=O)N[C@@H](CCCCN)C(=O)N[C@@H](CCCCN)C(=O)N1CCC[C@H]1C(=O)N1CCC[C@H]1C(=O)N[C@@H](C)C(=O)N[C@@H](CCCCN)C(=O)N[C@@H](CC(C)C)C(=O)N[C@@H](CCC(N)=O)C(=O)N1CCC[C@H]1C(=O)N[C@@H](CCCNC(=N)N)C(=O)O)C(C)C [Compound 56, [Dap^3(Octanoyl)]-hGhrelin]

Ca-releasing activity relative to the 3rd-serine octanoyl parent (octanoyl moved from 3rd to 2nd serine): about 1/200
Structure (SMILES): CCCCCCCC(=O)OC[C@H](NC(=O)CN)C(=O)N[C@@H](CO)C(=O)N[C@@H](Cc1ccccc1)C(=O)N[C@@H](CC(C)C)C(=O)N[C@@H](CO)C(=O)N1CCC[C@H]1C(=O)N[C@@H](CCC(=O)O)C(=O)N[C@@H](Cc1c[nH]cn1)C(N)=O [Compound 4, [Ser^2(Octanoyl), Ser^3]-Ghrelin (1-9)-amide] (H-GS(Octanoyl)SFLSPEH-NH2)

EC50 [2]: 15 nM
Structure (SMILES): CCCCCCCC(=O)OC[C@H](NC(=O)[C@H](CO)NC(=O)CN)C(=O)N[C@@H](Cc1ccccc1)C(=O)N[C@@H](CC(C)C)C(=O)N[C@@H](CO)C(=O)N1CCC[C@H]1C(=O)N[C@@H](CCC(=O)O)C(=O)N[C@@H](Cc1c[nH]cn1)C(=O)N[C@@H](CCC(N)=O)C(=O)N[C@@H](CCCCN)C(=O)O [Compound 24, rGbrelin (1-11)]

EC50 [1]: > 10000 nM
EC50 [2]: > 10000 nM
Structure (SMILES): CC(C)C[C@H](NC(=O)[C@H](CCCCN)NC(=O)[C@H](C)NC(=O)[C@@H]1CCCN1C(=O)[C@@H]1CCCN1C(=O)[C@H](CCCCN)NC(=O)[C@H](CCCCN)NC(=O)[C@H](CO)NC(=O)[C@H](CCC(=O)O)NC(=O)[C@@H](N)CCCCN)C(=O)N[C@@H](CCC(N)=O)C(=O)N1CCC[C@H]1C(=O)N[C@@H](CCCNC(=N)N)C(=O)O [Compound 19, Ghrelin (16-28)]
